Our source for the TGI and GI50 values is PubChem BioAssay (NCI).

Test systems include DU-145 prostate; HCC-2998 colon; HL-60(TB) leukemia; HOP-62 NSCLC; MDA-MB-435; MOLT-4 leukemia; NCI-H460 lung; RPMI-8226 leukemia; U251 CNS; LOX IMVI melanoma.
Common to all, as to assay: growth of human tumour cells (NCI), 48 h

Structures are written as SMILES. Several values for one entry are separate records, joined by “and”; a condition that tells them apart may be missing. Equal entries are not always repeated.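 Each compound was tested at five concentrations against cells in 96-well plates for 48 hours. GI50 is the concentration that inhibits growth by half. TGI is the concentration that stops growth completely.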

Take `O=C1N[C@H]2c3c(Cl)sc(Cl)c3/C(=N/O)[C@H]2O1`: the TGI in the assay with DU-145 prostate was over 100 µM; in the assay with HCC-2998 colon, over 100 µM; with HL-60(TB) leukemia, 57.9 µM; in the assay on HOP-62 NSCLC, over 100 µM; with MDA-MB-435 it was over 100 µM; in the assay on MOLT-4 leukemia, over 100 µM. Further, the TGI in the assay on NCI-H460 lung, in the assay with RPMI-8226 leukemia and with U251 CNS was over 100 µM throughout.
In the case of `COC(=O)N1CC2(CO)C3CC=C(C(=O)Nc4ccccc4Br)C2C1C3Br` (configuration not stated), the TGI in the assay on DU-145 prostate, in the assay with HCC-2998 colon, in the assay on HL-60(TB) leukemia, in the assay with HOP-62 NSCLC, in the assay on LOX IMVI melanoma and in the assay on MDA-MB-435 was over 50 µM in each case. The TGI in the assay on MOLT-4 leukemia, in the assay on NCI-H460 lung, in the assay on RPMI-8226 leukemia and in the assay with U251 CNS was over 50 µM throughout.
As for `c1ccc(CNC2CC(NCc3ccccn3)CC(NCc3ccccn3)C2)nc1` (configuration not stated), the TGI in the assay with DU-145 prostate is 8.52 µM and 17.1 µM; in the assay on HCC-2998 colon it was 3.72 µM; in the assay on HL-60(TB) leukemia, 10.5 µM and 10.2 µM; in the assay on HOP-62 NSCLC, 20.8 µM and 20.4 µM and 23 µM; in the assay with LOX IMVI melanoma it was 6.95 µM and 14.5 µM and 7.77 µM; in the assay on MDA-MB-435, 9.45 µM and 8.78 µM and 15.5 µM. Also, the TGI was 23.4 µM and 24.8 µM and 33.1 µM in the assay with MOLT-4 leukemia; 7.07 µM and 12 µM in the assay with NCI-H460 lung; 9.64 µM and 25 µM and 13.5 µM in the assay on RPMI-8226 leukemia; 3.88 µM and 9.35 µM and 3.36 µM with U251 CNS. Besides, the GI50 is 2.78 µM and 1.23 µM in the assay with HL-60(TB) leukemia; 2.62 µM and 5.4 µM and 2.83 µM in the assay with LOX IMVI melanoma; 3.84 µM in the assay with MDA-MB-435; 2.96 µM and 6.93 µM and 3.51 µM in the assay with RPMI-8226 leukemia; 1.95 µM and 4.9 µM and 1.88 µM with U251 CNS.
Turning to `Clc1ccc2c(SCC3CO3)c3ccccc3nc2c1` (configuration not stated), the TGI was 2.95 µM with DU-145 prostate; 9.55 µM in the assay with HCC-2998 colon; 2.59 µM in the assay with HL-60(TB) leukemia; 17.6 µM in the assay on HOP-62 NSCLC; over 100 µM in the assay on LOX IMVI melanoma; 20.2 µM with MDA-MB-435. Moreover, the TGI worked out at 4.3 µM in the assay with MOLT-4 leukemia, 20.9 µM with NCI-H460 lung and 7.19 µM in the assay with RPMI-8226 leukemia.
As to `Nc1nc2c(=O)c3ccccc3sc2s1`, the TGI with DU-145 prostate, in the assay on HL-60(TB) leukemia, in the assay on HOP-62 NSCLC, in the assay on LOX IMVI melanoma, in the assay on MDA-MB-435 and with MOLT-4 leukemia was over 100 µM each time. The TGI with NCI-H460 lung, in the assay with RPMI-8226 leukemia and with U251 CNS was over 100 µM throughout.
`COc1cc(/C=C/C(=O)OCC23CC[C@@]4(C(=O)O)CCC(C)[C@H](C)C4C2=CCC2[C@@]4(C)CC[C@H](O)C(C)(C)C4CC[C@]23C)ccc1O` (some centres not stated): the TGI in the assay with DU-145 prostate was 23.2 µM; in the assay on HCC-2998 colon it was over 100 µM; in the assay with HL-60(TB) leukemia, 51.1 µM; in the assay with HOP-62 NSCLC, 28.6 µM; in the assay on LOX IMVI melanoma, 34.2 µM; with MDA-MB-435, 57 µM. Moreover, the TGI in the assay with MOLT-4 leukemia stood at 76.2 µM; with NCI-H460 lung it was 27.6 µM; in the assay with U251 CNS it was 76.1 µM.
As for `CC(=O)NC1C(OCc2ccccc2)OC(CO)C(O)C1OCC(=O)NC(C)C(=O)NC(CCC(=O)NCCCCNc1ccc([N+](=O)[O-])c2[nH]c3ccccc3c(=O)c12)C(N)=O` (configuration not stated), the TGI in the assay with DU-145 prostate, with HCC-2998 colon, in the assay on HL-60(TB) leukemia, in the assay with HOP-62 NSCLC, in the assay with LOX IMVI melanoma and in the assay with MDA-MB-435 was over 100 µM each time. Also, the TGI in the assay with NCI-H460 lung and in the assay on U251 CNS was over 100 µM each time.
Regarding `CC[n+]1cnc(N)c2c(-c3ccc(Cl)cc3)cn(-c3ccc(C)cc3)c21`, the TGI amounted to 31.8 µM in the assay on DU-145 prostate; 14.8 µM in the assay with HCC-2998 colon; 44.3 µM in the assay on HL-60(TB) leukemia; 30.5 µM with HOP-62 NSCLC; 25.9 µM in the assay with LOX IMVI melanoma; 23.7 µM in the assay on MDA-MB-435. The TGI in the assay with MOLT-4 leukemia came to 20.5 µM; in the assay with NCI-H460 lung, 35.8 µM; with U251 CNS, 24.3 µM.
In the case of `O=C1CSC2(CC(/C=C/c3ccccc3)=NN2c2cccc(S(=O)(=O)O)c2)N1c1nc2ccccc2s1` (configuration not stated), the TGI was 54.4 µM in the assay on DU-145 prostate; over 100 µM in the assay on HCC-2998 colon; 94.6 µM in the assay on HL-60(TB) leukemia; 23.7 µM with LOX IMVI melanoma; 37.2 µM with MDA-MB-435; 91.5 µM with MOLT-4 leukemia. The TGI in the assay on NCI-H460 lung was over 100 µM; in the assay on RPMI-8226 leukemia, 53.7 µM; in the assay on U251 CNS it was 42.1 µM.
On to `Cc1ccc(C2CC(=O)CC(c3ccc(C)cc3)C23C(=O)NC(=O)NC3=O)cc1` (configuration not stated), for which the TGI in the assay with DU-145 prostate, in the assay on HCC-2998 colon, in the assay with HOP-62 NSCLC, in the assay with LOX IMVI melanoma, with MDA-MB-435 and with MOLT-4 leukemia was over 100 µM in each case. Moreover, the TGI in the assay on NCI-H460 lung, in the assay on RPMI-8226 leukemia and with U251 CNS was over 100 µM in each case.
Regarding `COC(=O)[C@H](Cc1ccccc1)NC(=O)c1ccc(CNC(=O)/C=C/c2ccc(-c3ccccc3)cc2)cc1`, the TGI was over 100 µM with DU-145 prostate; over 100 µM in the assay on HCC-2998 colon; over 100 µM in the assay with HL-60(TB) leukemia; 45.4 µM in the assay on HOP-62 NSCLC; over 100 µM with MDA-MB-435; over 100 µM with MOLT-4 leukemia. In addition, the TGI in the assay with NCI-H460 lung is over 100 µM; in the assay on RPMI-8226 leukemia, over 100 µM; in the assay with U251 CNS it was 37.3 µM.
Take `O=S(=O)(c1ccc(Br)cc1)n1c2ccc(Br)cc2c2nc3ccccc3nc21`: the TGI with DU-145 prostate, in the assay on HCC-2998 colon, in the assay on HOP-62 NSCLC, in the assay with LOX IMVI melanoma, in the assay on MDA-MB-435 and with MOLT-4 leukemia was over 100 µM throughout. The TGI was over 100 µM in the assay with NCI-H460 lung, over 100 µM in the assay on RPMI-8226 leukemia and 90.3 µM in the assay with U251 CNS.
Turning to `COc1cc2c(cc1OCCCN1CCN(CCCOc3cc4c(cc3OC)C(=O)N3CCC[C@H]3C=N4)CC1)C=CC(C)(C)O2`, the GI50 with DU-145 prostate is 0.889 µM; in the assay with HCC-2998 colon it was 0.683 µM; in the assay with HL-60(TB) leukemia it was 0.252 µM; in the assay with HOP-62 NSCLC, 1.25 µM; in the assay on LOX IMVI melanoma, 0.755 µM; in the assay on MDA-MB-435, 1.24 µM. Besides, the GI50 in the assay with MOLT-4 leukemia is 0.249 µM; with NCI-H460 lung, 1.1 µM; in the assay with RPMI-8226 leukemia, 0.232 µM. For the same compound, the TGI in the assay on DU-145 prostate was 2.1 µM; in the assay with HCC-2998 colon, 2.07 µM; with HL-60(TB) leukemia, 0.738 µM; in the assay on HOP-62 NSCLC, 2.5 µM; with LOX IMVI melanoma, 2.09 µM; with MDA-MB-435, 2.55 µM. In addition, the TGI was found to be 0.765 µM in the assay with MOLT-4 leukemia, 2.32 µM with NCI-H460 lung and 0.699 µM in the assay with RPMI-8226 leukemia.
